Reference: paper PMC5736435 (European journal of medicinal chemistry, 2017)
≈ marks a conversion by molar mass, not a printed value.

Experiments:
[1] = In vivo pharmacokinetics in rats; details: rat
[2] = tested on: human colorectal cells (HRT-18); assay: In vitro cytotoxicity; type: cell-based; details: for safety margin: human, 2 h; for concentration not toxic to HRT-18 cells: MTS assay, two hours incubation
PBS solubility screen = type: physicochemical
[3] = phosphate-buffered saline; cited from earlier work
BHK-21 = assay: In vitro cytotoxicity; type: cell-based, hamster; details: MTT assay
MRSA USA300 [4] = type: cell-based, Staphylococcus aureus; details: MRSA USA300, fourteen passages over two weeks
MRSA USA300 [5] = assay: Time-kill assay against MRSA; type: cell-based, Staphylococcus aureus
S. aureus NRS119 [6] = assay: MIC by broth microdilution against linezolid-resistant S. aureus NRS119; type: cell-based, Staphylococcus aureus; details: S. aureus NRS119, resistance to linezolid
S. aureus NRS107 = assay: MIC by broth microdilution against mupirocin-resistant S. aureus NRS107; type: cell-based, Staphylococcus aureus; details: S. aureus NRS107, high-level resistance to mupirocin
S. aureus NRS384 = type: cell-based, Staphylococcus aureus; details: S. aureus NRS384, resistance to macrolides and tetracyclines
MRSA (2658 RCMB) = assay: MIC by broth microdilution against MRSA clinical isolate 2658 RCMB; type: cell-based; details: Staphylococcus aureus
S. aureus NRS119 [7] = details: cited from earlier work
[8] = in vivo; cited from earlier work

For `CCCCc1ccc(-c2nc(C)c(/C(C)=N/NC(=N)N)s2)cc1` [Compound 1a, reference compound], the “%F (oral bioavailability)” value ([1]; 25 mg/kg oral dose) was “not bioavailable orally” and the safety margin [2] was 32 ×MIC.

For `C/C(=N\NC(=N)N)c1sc(-c2ccc(-c3ccccc3)cc2)nc1C` [Compound 1b, reference compound], the solubility at 2 h (PBS solubility screen; Solubility limit) is given as 2.2 µM (≈ 0.769 µg/mL) and the “times less soluble than lead compound 1a” value [3] is given as 24 times.

For `Cc1nc(-c2ccc(-c3ccccc3)cc2)sc1-c1nnc(NC(=N)N)o1` [Compound 22, 1-{5-(2-([1,1′-Biphenyl]-4-yl)-4-methylthiazol-5-yl)-1,3,4-oxadiazol-2-yl}guanidine], the “improvement in aqueous solubility relative to pyrimidine analogue 1c” value (PBS solubility screen) was 43 times.

In the case of `Cc1nc(-c2ccc(-c3ccccc3)cc2)sc1-c1nnc(NC(=N)N2CCOCC2)o1` [Compound 26, N-{5-(2-([1,1′-Biphenyl]-4-yl)-4-methylthiazol-5-yl)-1,3,4-oxadiazol-2-yl}morpholine-4-carboximidamide], the “concentration not toxic to HRT-18 cells” value [2] was 256 µg/mL, the “tolerability against non-cancerous cell line BHK-21” value (BHK-21) was “highly tolerable” and the “shift in MIC over fourteen passages” value (MRSA USA300 [4]) was “No increase in MIC”.

With `Cc1nc(-c2ccc(-c3ccccc3)cc2)sc1-c1nnc(NC(=N)N2CCN(C)CC2)o1` [Compound 27, N-{5-(2-([1,1′-Biphenyl]-4-yl)-4-methylthiazol-5-yl)-1,3,4-oxadiazol-2-yl}-4-methylpiperazine-1-carboximid-amide] the “Cmax relative to MIC against MRSA (2658 RCMB)” value ([1]; in vivo, po, 25 mg/kg) was “nearly six-fold”, the “concentration not toxic to HRT-18 cells” value [2] was 512 µg/mL and the safety margin [2] was “more than 400 ×MIC”. For the same compound, the “tolerability against non-cancerous cell line BHK-21” value (BHK-21) was “highly tolerable”, the “MRSA CFU after 24 h” value (MRSA USA300 [5]; after 24 h, 4 × MIC, 37 °C) was “completely eradicated” and the “mode of action, bacteriostatic or bactericidal” value (MRSA USA300 [5]; at the concentration tested (4 × MIC)) was “bactericidal”. For the same compound, the “growth inhibition” value (S. aureus NRS119 [6]) was “inhibited growth”, the “growth inhibition” value (S. aureus NRS107) was “inhibited growth” and the “growth inhibition” value (S. aureus NRS384) was “inhibited growth”. For the same compound, the MIC (MRSA (2658 RCMB)) was 1.1 µg/mL (≈ 2.39 µM) and the “shift in MIC over fourteen passages” value (MRSA USA300 [4]) was “No increase in MIC”.

For `CC(=O)NC[C@H]1CN(c2ccc(N3CCOCC3)c(F)c2)C(=O)O1` [linezolid], the MIC (S. aureus NRS119 [7]) is given as greater than 128 µg/mL.

In the case of `CCC[C@H](NC(=O)[C@@H]1[C@H]2CCC[C@H]2CN1C(=O)[C@@H](NC(=O)[C@@H](NC(=O)c1cnccn1)C1CCCCC1)C(C)(C)C)C(=O)C(=O)NC1CC1` [telaprevir], the oral bioavailability [8] is listed as no more than 3%.
